Results published in US20040248821A1, “Composition for the treatment of lupus” (priority 2001, published 2004).
“Also recorded” adds a separate entry of the source.

Columns and labels:
[1] = system: patients with Lupus (SLE); experiment: Treatment of human Lupus patients with the inventive composition (case reports); format: in vivo; conditions: flavonoid replacing Quercetin in the inventive formula; limited tests
[2] = system: osteoarthritis or Lupus caused joint inflammation; conditions: Bromelain alone; cited from earlier work

Row | Compound | Effectiveness of the flavonoid in the inventive formula (with Bromelain and Vitamin C) [1] | Ameliorating joint pain [2]
1 | O=c1cc(-c2ccc(O)c(O)c2)oc2cc(O)cc(O)c12 [Luteolin] | also effective; also recorded: somewhat more effective than Quercetin | –
2 | O=c1c(O)c(-c2cc(O)c(O)c(O)c2)oc2cc(O)cc(O)c12 [Myricetin] | also effective; also recorded: somewhat effective | –
3 | Bromelain | – | not effective
